# From patent EP4775208A1, “USE OF PRMT5 INHIBITOR IN TREATMENT OF TUMORS OR CANCERS” (Apeiron Therapeutics (Hong Kong) Ltd., priority 2023, dated 2025)
# Tests used:
# Format in all cases: cell-based
# [1] = tested on: LN18 MTAP(-/-) cells; assay: Inhibition of proliferation of LN18 MTAP(-/-) cells (CellTiter-Glo); conditions: Homo sapiens, LN-18, 168 h, cell proliferation, 7 days
# Experimental: Test 5: Assay for Inhibitory Activity of Compounds against LN18 MTAP(-/-) Cell Proliferation
# (§1) Materials and Cells: The LN18 MTAP(-/-) cell line was provided by Cobioer Biosciences (China). Cell culture media, fetal bovine serum (FBS), and penicillin-streptomycin were purchased from Thermo Fisher Scientific (USA). 384-well plates were purchased from PerkinElmer (USA). The CellTiter-Glo assay kit was purchased from Promega (USA).
# Cell Culture: LN18 MTAP(-/-) cells were cultured in a medium supplemented with 10% fetal bovine serum (FBS) and 1% penicillin-streptomycin at 37°C with 5% CO2. Only cells in the logarithmic growth phase were used for experiments.
# (§2) Cell Proliferation Inhibition Assay: The antiproliferative activity of the compounds against LN18 MTAP(-/-) cells was assessed using the CellTiter-Glo assay kit. Cell suspensions were adjusted to the appropriate density and seeded into 384-well plates at a volume of 40 µL per well, then incubated overnight at 37°C with 5% CO2. Compounds (40 nL) were added to each well to achieve final concentrations ranging from 0 to 1,000 nM (starting concentration 1,000 nM, 3-fold serial dilutions, 9 dose points), with a final DMSO concentration of […]. The cell plates were incubated at 37°C with 5% CO2 for 7 days. Subsequently, 40 µL of CellTiter-Glo reagent was added to measure cell viability.
# [2] = tested on: LN18 MTAP-overexpressing cells; assay: Inhibition of proliferation of LN18 MTAP-overexpressing cells (CellTiter-Glo); conditions: Homo sapiens, LN-18, 168 h, cell proliferation, 7 days
# Source text: Test 6: Assay for Inhibitory Activity of Compounds against LN18 MTAP-Overexpressing Cell Proliferatio
# as §1, with “MTAP-overexpressing” for “MTAP(-/-)”, “purchased from” for “provided by”
# Cell Culture: LN18 MTAP-overexpressing cells were cultured in a medium supplemented with 10% fetal bovine serum (FBS) and 1% penicillin-streptomycin at 37°C with 5% CO2. Only cells in the logarithmic growth phase were used for experiments.
# as §2, with “MTAP-overexpressing” for “MTAP(-/-)”, “10,000” for “1,000”
# [3] = tested on: U87MG MTAP(-/-) cells; assay: Inhibition of proliferation of U87MG MTAP(-/-) cells (CellTiter-Glo); conditions: Homo sapiens, U-87 MG, 144 h, cell proliferation, 6 days
# Experimental: Test 7: Assay for Inhibitory Activity of Compounds against U87MG MTAP(-/-) Cell Proliferation
# as §1, with “U87MG” for “LN18”, “purchased from ATCC (USA).” for “provided by Cobioer Biosciences (China).”
# Cell Culture: U87MG MTAP(-/-) cells were cultured in a medium supplemented with 10% fetal bovine serum (FBS) and 1% penicillin-streptomycin at 37°C with 5% CO2. Only cells in the logarithmic growth phase were used for experiments.
# Cell Proliferation Inhibition Assay: The antiproliferative activity of the compounds against U87MG MTAP(-/-) cells was assessed using the CellTiter-Glo assay kit. Cell suspensions were adjusted to the appropriate density and seeded into 384-well plates at a volume of 40 µL per well, then incubated overnight at 37°C with 5% CO2. Compounds (40 nL) were added to each well to achieve final concentrations ranging from 0 to 10,000 nM (starting concentration 10,000 nM, 3-fold serial dilutions, 10 dose points), with a final DMSO concentration of […]. The cell plates were incubated at 37°C with 5% CO2 for 6 days. Subsequently, 40 µL of CellTiter-Glo reagent was added to measure cell viability. Paclitaxel was used as a control compound.
# [4] = tested on: SW780; assay: Mini cell panel: inhibition of proliferation of SW780 cells; conditions: Homo sapiens, SW780, MTAP (-/-)
# Source text: (§3) Test 9: Mini Cell Panel: Assay for Inhibitory Activity of Compounds against Proliferation of 20 Tumor Cell Lines
# (§4) Materials and Cells: Fifteen MTAP(-/-) cell lines and five MTAP wild-type cell lines were purchased from ATCC (USA). Cell culture media, fetal bovine serum (FBS), and penicillin-streptomycin were purchased from Thermo Fisher Scientific (USA). 384-well plates were purchased from PerkinElmer (USA). The CellTiter-Glo assay kit was purchased from Promega (USA). Paclitaxel was used as the control compound.
# [5] = tested on: LN-18; assay: Mini cell panel: inhibition of proliferation of LN-18 cells; conditions: Homo sapiens, LN-18, MTAP (-/-)
# Source text: as §3, §4
# [6] = tested on: MDA-MB-231; assay: Mini cell panel: inhibition of proliferation of MDA-MB-231 cells; conditions: Homo sapiens, MDA-MB-231, MTAP (-/-)
# Source text: as §3, §4
# [7] = tested on: MKN-45; assay: Mini cell panel: inhibition of proliferation of MKN-45 cells; conditions: Homo sapiens, MKN-45, MTAP (-/-)
# Source text: as §3, §4
# [8] = tested on: U87MG; assay: Mini cell panel: inhibition of proliferation of U87MG cells; conditions: Homo sapiens, U-87 MG, MTAP (-/-)
# Source text: as §3, §4
# [9] = tested on: ACHN; assay: Mini cell panel: inhibition of proliferation of ACHN cells; conditions: Homo sapiens, ACHN, MTAP (-/-)
# Source text: as §3, §4
# [10] = tested on: A549; assay: Mini cell panel: inhibition of proliferation of A549 cells; conditions: Homo sapiens, A549, MTAP (-/-)
# Source text: as §3, §4
# [11] = tested on: LU99; assay: Mini cell panel: inhibition of proliferation of LU99 cells; conditions: Homo sapiens, Lu-99, MTAP (-/-)
# Source text: as §3, §4
# [12] = tested on: NCI-H647; assay: Mini cell panel: inhibition of proliferation of NCI-H647 cells; conditions: Homo sapiens, NCI-H647, MTAP (-/-)
# Source text: as §3, §4
# [13] = tested on: SW1573; assay: Mini cell panel: inhibition of proliferation of SW1573 cells; conditions: Homo sapiens, SW1573, MTAP (-/-)
# Source text: as §3, §4
# [14] = tested on: DOHH-2; assay: Mini cell panel: inhibition of proliferation of DOHH-2 cells; conditions: Homo sapiens, DOHH-2, MTAP (-/-)
# Source text: as §3, §4
# [15] = tested on: SK-MEL-5; assay: Mini cell panel: inhibition of proliferation of SK-MEL-5 cells; conditions: Homo sapiens, MTAP (-/-)
# Source text: as §3, §4
# [16] = tested on: BxPc-3; assay: Mini cell panel: inhibition of proliferation of BxPc-3 cells; conditions: Homo sapiens, BXPC-3, MTAP (-/-)
# Source text: as §3, §4
# [17] = tested on: PSN-1; assay: Mini cell panel: inhibition of proliferation of PSN-1 cells; conditions: Homo sapiens, PSN1, MTAP (-/-)
# Source text: as §3, §4
# [18] = tested on: Calu-1; assay: Mini cell panel: inhibition of proliferation of Calu-1 cells; conditions: Homo sapiens, Calu-1, MTAP Wild type
# Source text: as §3, §4
# [19] = tested on: SU-DHL-10; assay: Mini cell panel: inhibition of proliferation of SU-DHL-10 cells; conditions: Homo sapiens, SU-DHL10, MTAP Wild type
# Source text: as §3, §4
# [20] = tested on: SU-DHL-4; assay: Mini cell panel: inhibition of proliferation of SU-DHL-4 cells; conditions: Homo sapiens, SU-DHL-4, MTAP Wild type
# Source text: as §3, §4
# [21] = tested on: Aspc-1; assay: Mini cell panel: inhibition of proliferation of Aspc-1 cells; conditions: Homo sapiens, ASPC1, MTAP Wild type
# Source text: as §3, §4
# [22] = tested on: CFPAC-1; assay: Mini cell panel: inhibition of proliferation of CFPAC-1 cells; conditions: Homo sapiens, CFPAC-1, MTAP Wild type
# Source text: as §3, §4
structure (smiles),measurement,setting,value
"CN(C(=O)c1cc2c(cc1C#N)nc(N)c1cncn12)[C@@H]1COc2cc(C(F)(F)F)ccc21 [Example 14, (S)-4-amino-7-cyano-N-methyl-N-(6-(trifluoromethyl)-2,3-dihydrobenzofuran-3-yl)imi dazo[1,5-a]quinoxaline-8-carboxamide]",IC50,[1],5.56 nM
same,IC50,[2],898 nM
same,IC50,[3],79.5 nM
"CC(=O)O[C@H]1C(=O)[C@@]2(C)[C@H]([C@H](OC(=O)c3ccccc3)[C@]3(O)C[C@H](OC(=O)[C@H](O)[C@@H](NC(=O)c4ccccc4)c4ccccc4)C(C)=C1C3(C)C)[C@]1(OC(C)=O)CO[C@@H]1C[C@@H]2O [Paclitaxel, reference compound]",IC50,[3],5.55 nM
same,IC50,[4],1.6 nM
same,IC50,[5],20.6 nM
same,IC50,[6],2.5 nM
same,IC50,[7],1.8 nM
same,IC50,[8],5.2 nM
same,IC50,[9],4.1 nM
same,IC50,[10],1.9 nM
same,IC50,[11],1.5 nM
same,IC50,[12],1.4 nM
same,IC50,[13],2.5 nM
same,IC50,[14],3.4 nM
same,IC50,[15],7.8 nM
same,IC50,[16],0.9 nM
same,IC50,[17],2.9 nM
same,IC50,[18],9.8 nM
same,IC50,[19],2.8 nM
same,IC50,[20],1.9 nM
same,IC50,[21],3.4 nM
same,IC50,[22],1.1 nM
